The test system of assay [1] is ULK kinase substrate ATG13 (phospho-Serine 318 ATG13) in MiaPaCa-2 cells. Kind of assay: pATG13 ELISA in mutant KRas MiaPaCa-2 cells in combination with trametinib. The format is cell-based. Particulars: MiaPaCa-2 human pancreatic cancer cells, with 250 nM trametinib, overnight. As to the method:
MiaPaCa-2 human pancreatic cancer cells (10000 cells/well) were added to a 384-well tissue-culture treated plate in 50 μL of pre-warmed DMEM medium supplemented with 10% characterized fetal bovine serum (Invitrogen, Carlsbad, Calif.), 100 units/mL penicillin G, 100 μg/mL streptomycin, and 2.5% Horse Serum and allowed to grow overnight at 37° C., 5% CO2, and 95% humidity. The following day, 10 μL of media containing trametinib or DMSO as a control was added to wells. The final concentration of trametinib in wells was 250 nM. A dose response of a test compound (0.6 μL per well) was added. DMSO (0.6 μL) was added to control wells. The plate was briefly shaken to mix wells and then incubated at 37° C. overnight. The next day, the media was aspirated and cells were washed with Dulbecco's Phosphate Buffered Saline (Gibco). Cells were lysed using MPER lysis buffer (Pierce, Rockford, Ill.) containing Halt Phosphatase and Protease Inhibitors (Pierce, Rockford, Ill.) and Phosphatase inhibitor cocktail 2 (Sigma, St. Louis, Mo.) at 4° C. for 10 minutes with shaking.
Cellular levels of phospho-Serine 318 ATG13 (pATG13) were measured via an ELISA method. Total ATG13 Antibody (Cell Signaling Cat #13273) was used to coat the wells. The plate was incubated at 4° C. overnight and washed with ELISA wash buffer (Biolegend Cat #421601). The wells were then blocked with assay diluent (Biolegend Cat #421203) for 1 hour at room temperature. Plate wells were washed with ELISA wash buffer. Cell lysate was added to wells and incubated at room temperature for 2 hours. Plate wells were washed with ELISA wash buffer. Biotinylated pS318-ATG13 antibody (Rockland Immunochemicals Cat #600-401-C49) was diluted in assay diluent and added to each well and incubated at room temperature for 1 hour. Plate wells were washed with ELISA wash buffer. Streptavidin linked to horseradish peroxidase (Thermo Fisher Cat #21140) was diluted in assay diluent and added to each well and incubated at room temperature for 1 hour. Plate wells were washed with ELISA wash buffer. High sensitivity TMB substrate (Biolegend Cat #421101) was added to each well and incubated at room temperature for 20 minutes. The reaction was stopped with 2N Sulfuric Acid. The plate was analyzed at on a plate reader measuring absorbance at 450 nm and 540 nm (background). Signal was calculated by first subtracting the background absorbance at 540 nm from the absorbance at 450 nm for each well. Next, the background corrected absorbance at 450 nm from blank wells was subtracted from test wells. Data was compared to control wells to determine % ATG13 phosphorylation. GraphPad Prism was used to calculate IC50 values.
(In an ELISA, binding on a coated surface is turned into a signal by an enzyme label.)

For assay [2], the target named is T1, ULK2 kinase (Homo sapiens, UniProt Q8IYT8).
T1 construct: purchased Eurofins 14-772
Kind of assay: Biochemical assay for ULK2 (coupled pyruvate kinase/lactate dehydrogenase assay). To be noted: 9.7 nM ULK2 (residues 1-306), myelin basic protein substrate, 1 mM ATP; read-out: ULK2.2.

The target in assay [3] is T2, ULK1 kinase (Homo sapiens, UniProt O75385).
T2 construct: purchased Eurofins 14-959
T2 sequence (O75385 with tags, fused parts or gaps): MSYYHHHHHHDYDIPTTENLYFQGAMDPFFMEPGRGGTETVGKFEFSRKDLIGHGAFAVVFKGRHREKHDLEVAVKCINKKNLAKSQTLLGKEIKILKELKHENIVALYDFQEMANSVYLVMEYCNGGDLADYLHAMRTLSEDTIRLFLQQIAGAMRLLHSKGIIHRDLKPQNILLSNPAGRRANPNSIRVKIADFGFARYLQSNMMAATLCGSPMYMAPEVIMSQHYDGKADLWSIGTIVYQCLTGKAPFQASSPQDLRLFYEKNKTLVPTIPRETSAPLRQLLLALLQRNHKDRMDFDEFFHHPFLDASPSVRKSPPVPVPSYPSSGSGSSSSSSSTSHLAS
Kind of assay: Biochemical assay for ULK1.2 (coupled pyruvate kinase/lactate dehydrogenase assay). To be noted: 19 nM ULK1 (residues 1-314), myelin basic protein substrate, 1 mM ATP.

T1 sequence (Q8IYT8 with tags, fused parts or gaps): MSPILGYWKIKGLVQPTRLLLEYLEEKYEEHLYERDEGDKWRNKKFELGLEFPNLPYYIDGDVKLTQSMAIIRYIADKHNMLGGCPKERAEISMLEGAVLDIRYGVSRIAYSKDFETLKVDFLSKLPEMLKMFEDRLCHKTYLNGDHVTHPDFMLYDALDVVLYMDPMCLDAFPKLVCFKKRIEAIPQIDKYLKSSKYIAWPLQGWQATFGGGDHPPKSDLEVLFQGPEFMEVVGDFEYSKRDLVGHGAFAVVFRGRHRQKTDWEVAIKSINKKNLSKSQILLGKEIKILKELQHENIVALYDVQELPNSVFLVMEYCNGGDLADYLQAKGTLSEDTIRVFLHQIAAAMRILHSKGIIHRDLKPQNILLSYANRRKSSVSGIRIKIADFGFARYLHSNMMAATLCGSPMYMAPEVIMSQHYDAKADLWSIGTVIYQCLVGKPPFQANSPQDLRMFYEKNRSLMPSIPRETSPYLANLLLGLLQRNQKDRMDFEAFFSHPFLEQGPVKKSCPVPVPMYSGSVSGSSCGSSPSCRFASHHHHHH

`CC(C)c1cc(N2CCN(C)CC2)ccc1Nc1ncc(C(F)(F)F)c(NCCCNC(=O)C2CCC2)n1` [Example 3]: the IC50 in assay [1] was 10 to 100 nM; in assay [2] it was 25 to 100 nM.
As to `COc1cc(N2CCN(C)CC2)ccc1Nc1ncc(C(F)(F)F)c(NCCCNC(=O)C2CCC2)n1` [Example 4], the IC50 in assay [1] lay in the range of 100 to 300 nM; in assay [2] it was 25 to 100 nM.
Consider `CC(C)c1cc(N2CCN(C)CC2)ccc1Nc1ncc(Br)c(NCCCNC(=O)C2CCC2)n1` [Example 8], for which the values for the IC50 in assay [1] and in assay [2] were 100 to 300 nM and 100 to 500 nM, respectively.
`Cc1cc(N2CCN(C)CC2)ccc1Nc1ncc(C(F)(F)F)c(NCCCNC(=O)C(C)(C)C)n1` [Example 12]: the IC50 in assay [1] lay within 100 to 300 nM; in assay [3], 25 to 100 nM; in assay [2], 100 to 500 nM.
Regarding `CN1CCN(c2ccc(Nc3ncc(C(F)(F)F)c(NCCCNC(=O)C4CCC4)n3)c(C3CC3)c2)CC1` [Example 14], the IC50 in assay [1] lay within 10 to 100 nM; in assay [2] it was 1 to 25 nM.
